# Legend:
# Assay type in all cases: in vivo, mouse
# old C57b1/6 mice [1] = assay: Tidal volume by whole-body plethysmography in aged mice; conditions: aged C57BL/6 mice, 25 mg/kg p.o. each substance, 90 days
# Experimental: The experiments were performed in old C57b1/6 mice (28-30 weeks). Table 1 discloses the groups of mice used for the experimentation. C57BL/6 mice were bred and naturally aged in a pathogen-free colony. Mice were group-housed six per cage for the treatment regimen and maintained on a 12-hr light-dark schedule with ad libitum access to food and water. All experiments were designed according to the principles of animal use for gerontological research (Miller, R. A., & Nadon, N. L. (2000). Principles of animal use for gerontological research. Journals of Gerontology. Series A, Biological Sciences and Medical Sciences, 55, B117-B123) [table] The above test substances were administered to the mice for a period of 90 days. Rapamycin was used as a positive control. […] The respiratory muscle function in the study animals was assessed by estimating the Tidal Volume, Minute ventilation, Transdiaphragmatic pressure ([…]) and Respiratory rate. […] In the present study, ventilatory parameters were measured in awake mice during eupnoea (spontaneous breathing of room air) using a whole-body plethysmography system. […] Recordings were taken after 10 min of acclimatization and recorded for one hour. Recorded parameters included tidal volume and minute ventilation
# SIRT1 = SIRT1 ELISA in lung tissue homogenate of aged mice; conditions: aged C57BL/6 mice, 25 mg/kg p.o. each substance, 90 days
# Experimental: The experiments were performed in old C57b1/6 mice (28-30 weeks). Table 1 discloses the groups of mice used for the experimentation. C57BL/6 mice were bred and naturally aged in a pathogen-free colony. Mice were group-housed six per cage for the treatment regimen and maintained on a 12-hr light-dark schedule with ad libitum access to food and water. All experiments were designed according to the principles of animal use for gerontological research (Miller, R. A., & Nadon, N. L. (2000). Principles of animal use for gerontological research. Journals of Gerontology. Series A, Biological Sciences and Medical Sciences, 55, B117-B123) [table] The above test substances were administered to the mice for a period of 90 days. Rapamycin was used as a positive control. After 90 days of administration experiments were performed to assess the respiratory muscle function, anatomical changes, cellular senescence and immunological changes. A number of cellular mechanisms and alterations constitute the hallmarks of cellular senescence. These include a stable cell cycle arrest chromatin alteration & reorganization; Inhibition of Sirt-1. Inhibition of AMPK and Dysregulation of mTOR. Silencing information regulator 2 related enzyme 1 (sirtuin1, SIRT1) is an NAD+-dependent deacetylase, which is involved in the regulation of cellular senescence and aging. The expression of SIRT1 is diminished with aging in mice. […]
# old C57b1/6 mice [2] = assay: Transdiaphragmatic pressure (Pdimax) in aged mice; conditions: aged C57BL/6 mice, anesthetized, eupnoea, 25 mg/kg p.o. each substance, 90 days
# Experimental: The experiments were performed in old C57b1/6 mice (28-30 weeks). Table 1 discloses the groups of mice used for the experimentation. C57BL/6 mice were bred and naturally aged in a pathogen-free colony. Mice were group-housed six per cage for the treatment regimen and maintained on a 12-hr light-dark schedule with ad libitum access to food and water. All experiments were designed according to the principles of animal use for gerontological research (Miller, R. A., & Nadon, N. L. (2000). Principles of animal use for gerontological research. Journals of Gerontology. Series A, Biological Sciences and Medical Sciences, 55, B117-B123) [table] […] The respiratory muscle function in the study animals was assessed by estimating the Tidal Volume, Minute ventilation, Transdiaphragmatic pressure ([…]) and Respiratory rate. […] Anesthetized mice were monitored continually for temperature, oxygen saturation, and heart rate. Palpebral reflex and pain response were monitored to ensure depth of anaesthesia. […] Spontaneous ventilation was maintained, the abdomen was bound, and Pdi was recorded using solid-state pressure catheters. […] The pressure data were collected using a PowerLab 8/35 data-acquisition system and analyzed using LabChart ([…]., & Mantilla, C. B. (2013). Novel method for transdiaphragmatic pressure measurements in mice. Respiratory Physiology & Neurobiology, 188, 56-59)
smiles,measurement,setting,value
O=C(/C=C/c1ccc(O)c(O)c1)O[C@H](Cc1ccc(O)c(O)c1)C(=O)O [Rosmarinic acid],tidal volume,old C57b1/6 mice [1]; versus old mice control,increased
same,"tidal volume, comparison between treatment groups",old C57b1/6 mice [1]; Rapamycin 8 mg/kg p.o. positive control,"better than control, and Rapamycin"
same,expression of SIRT1,SIRT1,increased
same,Transdiaphragmatic pressure (Pdimax),old C57b1/6 mice [2],increase

# Reference: US20250090614A1, “COMPOSITIONS AND METHODS FOR IMPROVING LUNG FUNCTION” (priority 2023, published 2025)
